Patent US9521847B2, “Synergistic weed control from applications of pyridine carboxylic acid herbicides and synthetic auxin herbicides and/or auxin transport inhibitors” (Dow AgroSciences LLC, priority 2014, dated 2016)
Where “and” joins values, the source holds several entries; their conditions need not be identical. Identical values can stand only once. Like-named read-outs stand apart in the source and are kept apart here.

Experiments:
[1] = test system: winter rape (BRSNW, Brassica napus); assay: Greenhouse postemergence trial, % visual injury; format: in vivo; settings: for % visual injury, Obs: BRSNW
[2] = test system: velvetleaf (Abutilon theophrasti, ABUTH); assay: Greenhouse postemergence trial, % visual injury; format: in vivo; settings: Abutilon theophrasti, post-emergence, read-out: % visual injury, Obs; for pest or weed control at 5 g/ha / pest or weed control at 10 g/ha: ABUTH
[3] = test system: sunflower (Helianthus annus, HELAN); assay: Greenhouse postemergence trial, % visual injury; format: in vivo; settings: HELAN; 2,3,5-TIBA 140 g ai/ha
[4] = test system: wild buckwheat (Polygonum convolvulus, POLCO); assay: Greenhouse postemergence trial, % visual injury; format: in vivo
[5] = test system: turnip (Brassica rapa, BRSRR); assay: Greenhouse postemergence trial, % visual injury; format: in vivo
[6] = test system: Chinese kale (Brassica alboglabra, BRSAG); assay: Greenhouse postemergence trial, % visual injury; format: in vivo; settings: BRSAG; 2,3,5-TIBA 140 g ai/ha
[7] = test system: brown mustard (Brassica juncea, BRSJU); assay: Greenhouse postemergence trial, % visual injury; format: in vivo; settings: BRSJU; 2,3,5-TIBA 140 g ai/ha
[8] = test system: Roundup Ready rape (Brassica napus, BRSNN-RR); assay: Greenhouse postemergence trial, % visual injury; format: in vivo; settings: 2,3,5-TIBA 140 g ai/ha
[9] = test system: spring rape (Brassica napus, BRSNN); assay: Greenhouse postemergence trial, % visual injury; settings: for % visual injury, Obs: BRSNN
[10] = test system: wild pansy (Viola tricolor, VIOTR); assay: Greenhouse postemergence trial, % visual injury; settings: for % visual injury, Obs: VIOTR
winter wheat (TRZAW) [11] = assay: Greenhouse postemergence trial, crop phytotoxicity (% visual injury); settings: TRZAW; 2,3,5-TIBA 140 g ai/ha
maize (ZEAMX) [12] = assay: as above; settings: ZEAMX; 2,3,5-TIBA 140 g ai/ha
common rice (ORYSA) = assay: as above; settings: ORYSA; 2,3,5-TIBA 140 g ai/ha
[13] = test system: pigweed (AMARE, Amaranthus retroflexus); assay: Greenhouse postemergence trial, % visual injury; format: in vivo; settings: AMARE
[14] = test system: common lambsquarters (CHEAL, Chenopodium album L.); assay: Greenhouse postemergence trial, % visual injury; format: in vivo; settings: CHEAL
[15] = test system: kochia (KCHSC, Kochia scoparia); assay: Greenhouse postemergence trial, % visual injury; format: in vivo; settings: for % visual injury, Obs.: Table 61
Procedure: Following the protocol in Example 1, compound 1 and compound 2 were combined with 2,4 D EHE (EC) and applied to kochia (KCHSC, Kochia scoparia) and the phytotoxicity of the herbicidal compositions was measured.
Following the protocol in Example 1, compound 1 (EC) and Compound 2 (SC) were combined with diflufenzopyr and applied to kochia (Kochia scoparia, KCHSC) and the phytotoxicity of the herbicidal composition was measured.

[16] = test system: nutsedge (Cyperus esculentus, CYPES); assay: Greenhouse postemergence trial, % visual injury; format: in vivo; settings: CYPES
[17] = test system: grain sorghum (Sorghum vulgare, SORVU); assay: Greenhouse postemergence trial, % visual injury; format: in vivo; settings: SORVU
[18] = test system: black mustard (Brassica nigra, BRSNI); assay: Greenhouse postemergence trial, % visual injury; format: in vivo
[19] = test system: wild radish (Raphanus raphanistrum, RAPRA); assay: Greenhouse postemergence trial, % visual injury; format: in vivo
[20] = test system: Russian thistle (Salsola iberica, SASKR); assay: Greenhouse postemergence trial, % visual injury; format: in vivo; settings: SASKR
[21] = test system: wild mustard (Sinapis arvensis, SINAR); assay: Greenhouse postemergence trial, % visual injury; format: in vivo; settings: for % visual injury, Obs: SINAR
[22] = test system: Indian hedge mustard (Sisymbrium orientale, SSYOR); assay: Greenhouse postemergence trial, % visual injury; format: in vivo
[23] = test system: blackgrass (Alopecurus myosuroides, ALOMY); assay: Greenhouse postemergence trial, % visual injury; format: in vivo
[24] = test system: wild oat (Avena fatua, VEFA); assay: Greenhouse postemergence trial, % visual injury; format: in vivo; settings: AVEFA
[25] = test system: large crabgrass (Digitaria sanguinalis, DIGSA); assay: Greenhouse postemergence trial, % visual injury; format: in vivo; settings: DIGSA
winter wheat (TRZAW) [26] = settings: winter wheat (Triticum aestivum), in vivo
maize (ZEAMX) [27] = settings: maize (Zea mays), in vivo
[28] = test system: poinsettia (Euphorbia heterophylla, EPHHL); assay: Greenhouse postemergence trial, % visual injury; settings: Euphorbia heterophylla, post-emergence
[29] = test system: ivyleaf morningglory (Ipomoea hederacea, IPOHE); assay: Greenhouse postemergence trial, % visual injury; settings: Ipomoea, post-emergence
[30] = Brassica napus, post-emergence, read-out: % visual injury, Obs

## O=C(O)c1cc(I)cc(I)c1I [2,3,5-TIBA, 2,3,5-triiodobenzoic acid, reference compound]
[1]; 2,3,5-TIBA 140 g ai/ha
  % visual injury, Obs: 0%
[2]
  pest or weed control at 140 g/ha: 0%
[3]
  % visual injury, Obs: 0%
[4]; POLCO, 2,3,5-TIBA 140 g ai/ha
  % visual injury, Obs: 0%
[5]; BRSRR, 2,3,5-TIBA 140 g ai/ha
  % visual injury, Obs: 20%
[6]
  % visual injury, Obs: 0%
[7]
  % visual injury, Obs: 10%
[8]
  % visual injury, Obs: 0%
[9]; [30]
  plant injury at 140 g/ha: 5%
[10]; 2,3,5-TIBA 140 g ai/ha
  % visual injury, Obs: 0%
Winter wheat (TRZAW) [11]
  % visual injury, Obs: 0%
Maize (ZEAMX) [12]
  % visual injury, Obs: 0%
Common rice (ORYSA)
  % visual injury, Obs: 0%

## Nc1c(F)c(-c2ccc3cc[nH]c3c2F)nc(C(=O)OCc2ccccc2)c1Cl [compound 2]
[13]; 5 g ae/ha
  % visual injury, Obs: 88% and 65%
[13]; 10 g ae/ha
  % visual injury, Obs: 100% and 60%
[13]; compound 2 (EC) 5 g ae/ha
  % visual injury, Obs: 88%
[13]; compound 2 (EC) 10 g ae/ha
  % visual injury, Obs: 100%
[1]; 5 g ae/ha
  % visual injury, Obs: 30%
[1]; 10 g ae/ha
  % visual injury, Obs: 50%
[1]; compound 2 SC 5 g ae/ha
  % visual injury (Obs): 50%
[1]; compound 2 SC 10 g ae/ha
  % visual injury (Obs): 50%
[14]; 5 g ae/ha
  % visual injury, Obs: 88%
[14]; 10 g ae/ha
  % visual injury, Obs: 99%
[15]; 8.75 g ae/ha alone, 20-22 d
  % visual injury Obs: 55%
[15]; Bassia scoparia, post-emergence, KCHSC, 5 g ae/ha, read-out: % visual injury, Obs
  pest or weed control at 5 g/ha: 30%
[15]; Bassia scoparia, post-emergence, KCHSC, 10 g ae/ha, read-out: % visual injury, Obs
  pest or weed control at 10 g/ha: 75%
[15]; KCHSC, compound 2 (SC) 8.75 g ae/ha
  % visual injury, Obs.: 84%
[15]; KCHSC, compound 2 (SC) 17.5 g ae/ha
  % visual injury, Obs.: 86%
[2]; 5 g ae/ha
  pest or weed control at 5 g/ha: 78%
[2]; 10 g ae/ha
  pest or weed control at 10 g/ha: 95%
[2]; compound 2 (EC) 5 g ae/ha
  pest or weed control at 5 g/ha: 78%
[2]; compound 2 (EC) 10 g ae/ha
  pest or weed control at 10 g/ha: 95%
[16]; 5 g ae/ha
  % visual injury, Obs: 5%
[16]; 10 g ae/ha
  % visual injury, Obs: 10%
[16]; compound 2 (EC) 5 g ae/ha
  % visual injury, Obs: 5%
[16]; compound 2 (EC) 10 g ae/ha
  % visual injury, Obs: 10%
[4]; compound 2 SC 5 g ae/ha
  % visual injury (Obs): 30%
[4]; compound 2 SC 10 g ae/ha
  % visual injury (Obs): 50%
[17]; 5 g ae/ha
  % visual injury, Obs: 38%
[17]; 10 g ae/ha
  % visual injury, Obs: 63%
[18]; compound 2 SC 2.5 g ae/ha
  % visual injury (Obs): 30%
[18]; compound 2 SC 5 g ae/ha
  % visual injury (Obs): 70%
[5]; compound 2 SC 2.5 g ae/ha
  % visual injury (Obs): 23%
[5]; compound 2 SC 5 g ae/ha
  % visual injury (Obs): 67%
[19]; compound 2 SC 2.5 g ae/ha
  % visual injury (Obs): 17%
[19]; compound 2 SC 5 g ae/ha
  % visual injury (Obs): 25%
[20]; 5 g ae/ha
  % visual injury, Obs: 10%
[20]; 10 g ae/ha
  % visual injury, Obs: 10%
[21]; 5 g ae/ha
  % visual injury, Obs: 95%
[21]; 10 g ae/ha
  % visual injury, Obs: 100%
[21]; compound 2 SC 2.5 g ae/ha
  % visual injury (Obs): 87%
[21]; compound 2 SC 5 g ae/ha
  % visual injury (Obs): 100% and 94%
[21]; compound 2 SC 10 g ae/ha
  % visual injury (Obs): 100%
[22]; compound 2 SC 2.5 g ae/ha
  % visual injury (Obs): 20%
[22]; compound 2 SC 5 g ae/ha
  % visual injury (Obs): 40%
[23]; 5 g ae/ha
  % visual injury, Obs: 0%
[23]; 10 g ae/ha
  % visual injury, Obs: 0%
[24]; 5 g ae/ha
  % visual injury, Obs: 0%
[24]; 10 g ae/ha
  % visual injury, Obs: 0%
[25]; compound 2 (EC) 5 g ae/ha
  % visual injury, Obs: 28%
[25]; compound 2 (EC) 10 g ae/ha
  % visual injury, Obs: 53%
[25]; Digitaria sanguinalis, post-emergence, 5 g ae/ha, read-out: % visual injury, Obs
  pest or weed control at 5 g/ha: 28%
[25]; Digitaria sanguinalis, post-emergence, 10 g ae/ha, read-out: % visual injury, Obs
  pest or weed control at 10 g/ha: 53%
Winter wheat (TRZAW) [26]
  % visual injury, Obs: 3%
Maize (ZEAMX) [27]
  % visual injury, Obs: 3%
[9]; compound 2 (EC) 5 g ae/ha
  % visual injury, Obs: 30%
[9]; compound 2 (EC) 10 g ae/ha
  % visual injury, Obs: 55%
[9]; [30]
  plant injury at 5 g/ha: 30%
  plant injury at 10 g/ha: 55%
[28]; read-out: % visual injury, Obs, EPHHL, 5 g ae/ha
  pest or weed control at 5 g/ha: 35%
[28]; read-out: % visual injury, Obs, EPHHL, 10 g ae/ha
  pest or weed control at 10 g/ha: 75%
[28]; read-out: % visual injury, Obs, EPHHL, compound 2 (EC) 5 g ae/ha
  pest or weed control at 5 g/ha: 35%
[28]; read-out: % visual injury, Obs, EPHHL, compound 2 (EC) 10 g ae/ha
  pest or weed control at 10 g/ha: 75%
[10]; 5 g ae/ha
  % visual injury, Obs: 15%
[10]; 10 g ae/ha
  % visual injury, Obs: 40%
[10]; compound 2 (EC) 5 g ae/ha
  % visual injury, Obs: 15%
[10]; compound 2 (EC) 10 g ae/ha
  % visual injury, Obs: 40%
[10]; compound 2 SC 2.5 g ae/ha
  % visual injury (Obs): 13%
[10]; compound 2 SC 5 g ae/ha
  % visual injury (Obs): 23%
[29]; read-out: % visual injury, Obs, IPOHE, 5 g ae/ha
  pest or weed control at 5 g/ha: 10%
[29]; read-out: % visual injury, Obs, IPOHE, 10 g ae/ha
  pest or weed control at 10 g/ha: 20%
[29]; read-out: % visual injury, Obs, IPOHE, compound 2 (EC) 5 g ae/ha
  pest or weed control at 5 g/ha: 10%
[29]; read-out: % visual injury, Obs, IPOHE, compound 2 (EC) 10 g ae/ha
  pest or weed control at 10 g/ha: 20%
